Laboratory results as given in patent publication US8124605B2, “Compositions and methods for modulating a kinase cascade” (Kinex Pharmaceuticals, LLC, priority 2007, dated 2012).

Assays:
Format in all cases: cell-based
JAK3 = target: T1, JAK3 (Homo sapiens, UniProt P52333); experiment: JAK phosphorylation/activation by flow cytometry, pSTAT5 staining in IL-4 stimulated U-937 cells; details: drug 30 min, then IL-4
T1 construct: U-937 cells, histiocytic lymphoma cell line; endogenous in cells; host or cells: U-937 (ATCC CRL-1593.2)
T1 sequence (P52333 1-1124): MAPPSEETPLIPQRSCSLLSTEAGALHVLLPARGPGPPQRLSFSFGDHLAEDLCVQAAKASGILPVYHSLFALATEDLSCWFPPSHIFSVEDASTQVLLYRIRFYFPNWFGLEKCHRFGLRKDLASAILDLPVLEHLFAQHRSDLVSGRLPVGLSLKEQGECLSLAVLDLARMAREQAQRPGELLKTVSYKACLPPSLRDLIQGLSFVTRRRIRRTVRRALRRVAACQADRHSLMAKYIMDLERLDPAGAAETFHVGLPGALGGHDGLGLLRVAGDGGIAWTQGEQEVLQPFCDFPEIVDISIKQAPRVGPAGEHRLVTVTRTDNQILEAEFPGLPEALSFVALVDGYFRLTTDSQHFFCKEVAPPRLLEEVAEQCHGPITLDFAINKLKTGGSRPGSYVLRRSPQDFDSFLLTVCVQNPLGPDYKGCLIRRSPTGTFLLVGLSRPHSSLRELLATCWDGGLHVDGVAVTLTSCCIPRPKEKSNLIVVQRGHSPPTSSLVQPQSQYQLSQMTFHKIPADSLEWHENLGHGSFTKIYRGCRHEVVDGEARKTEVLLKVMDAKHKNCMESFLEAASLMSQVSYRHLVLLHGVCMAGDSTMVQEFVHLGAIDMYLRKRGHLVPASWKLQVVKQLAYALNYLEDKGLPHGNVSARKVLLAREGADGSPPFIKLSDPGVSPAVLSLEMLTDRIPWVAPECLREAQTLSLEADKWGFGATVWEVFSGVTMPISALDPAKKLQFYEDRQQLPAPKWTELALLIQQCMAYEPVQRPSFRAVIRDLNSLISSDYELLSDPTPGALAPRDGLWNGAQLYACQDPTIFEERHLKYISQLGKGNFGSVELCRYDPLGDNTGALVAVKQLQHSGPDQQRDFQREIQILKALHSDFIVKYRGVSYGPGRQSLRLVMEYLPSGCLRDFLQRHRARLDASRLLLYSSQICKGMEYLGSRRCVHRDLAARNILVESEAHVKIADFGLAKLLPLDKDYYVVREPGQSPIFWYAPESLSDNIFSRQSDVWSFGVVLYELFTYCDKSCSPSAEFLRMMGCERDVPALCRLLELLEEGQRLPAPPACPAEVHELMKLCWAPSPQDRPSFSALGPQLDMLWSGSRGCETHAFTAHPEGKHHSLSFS
Experimental: (§1) The protocol used to analyze the effect of compounds of the invention on JAK phosphorylation/activation is adapted from: Krutzik and Nolan, Cytometry Part A 55A:61-70 (2003).
(§2) Briefly, U-937 cells, histiocytic lymphoma cell line; ATCC No. CRL-1593.2, were treated with compounds of the invention or commercial JAK inhibitors. Cells were then stimulated with IL-4, to engage the JAK/STAT signaling pathway. Cells were fixed with formaldehyde to “freeze” the phosphorylation states of intracellular proteins. Cells were next permeabilized, and stained with mAbs directed against the phosphorylated STAT (pSTAT) proteins. The positive shift in fluorescence due to pSTAT staining serves as a surrogate to JAK phosphorylation/activation: no flow cytometric mAbs specific to JAKs exist, so the proximal downstream signaling event, STAT phosphorylation, is measured. A decrease in fluorescence, due to drug incubation prior to IL-4 stimulation, is an indirect indication of JAK inhibition. The following antibodies were used: apSTAT5-PE: monoclonal antibody to the intracellular STAT5a protein phosphorylated at Tyrosine 694; conjugated to the fluorochrome phycoerythrin (PE); BD No. 612567 and apSTAT6-Alex647: monoclonal antibody to the intracellular STAT6 protein phosphorylated at Tyrosine 641; conjugated to the fluorochrome Alexa Fluor 647; BD No. 612601. The detailed protocol is described below:
(§3) Resuspend U-937 cells @ 8×10^5 cells/mL in complete culture medium (RPMI-1640/10% FBS).
(§4) Add 0.5 mL cell suspension to each well of 24-well tissue culture plate.
(§5) Add drug treatment (compounds, controls) for 30 min @ 37° C., 5% CO2.
(§6) Add cytokine/growth factor to stimulate; 15-30 min @ 37° C. (1 μL/0.5 mL cell suspension; IL-4, IL-2, IL-15=20 ng/mL)
(§7) Transfer cells to 5 mL Flow tubes.
(§8) Add 16% Formaldehyde directly to cell culture to obtain final concentration of 1.5% formaldehyde. (47 μL formaldehyde+0.5 mL cell culture)
(§9) Incubate cells in fixative for 15 min @ 37° C., 5% CO2.
(§10) Add 3 mL cold “Staining Media” (PBS/1% BSA) to each tube; centrifuge cells @ 1100 RPM, 3 min. Discard supernatant.
(§11) Resuspend cells with vigorous vortexing in 200 μL ice-cold Methanol.
(§12) Incubate cells on ice, 30 min.
(§13) Wash cells twice in 2 mL “Staining Medium” (centrifuge cells @ 1100 RPM, 3 min). Discard supernatant.
(§14) Add 8 μL of fluorophore-conjugated, phosphoprotein-specific mAbs to cells. Incubate cells at RT, 60 min, in the dark.
(§15) Wash cells with 4 mL Staining Media. Centrifuge cells @ 1100 RPM, 3 min. Discard supernatant.
(§16) Resuspend cells in 350 μL Staining Media.
(§17) Acquire cellular events on BD FACSCalibur cytometer.

[1] = tested on: human colon tumor cell line HT-29; experiment: Cell proliferation assay (MTT assay), GI50; details: HT-29, 72 h, 3 days incubation, read-out: GI50 HT29
Experimental: (§18) The GI50s for several of the compounds of the invention are assayed as described herein.
(§19) Cell line and culture media—the human colon tumor cell line HT-29 was obtained from Dr. Irwin Gelman (Roswell Park Cancer Institute, Buffalo, N.Y.) and maintained in McCoy's 5A medium supplemented with 2% fetal bovine serum and penicillin-streptomycin. SYF/c-Src527F cell line was also obtained from Dr. Irwin Gelman and maintained in Dulbecco's modified Eagle's medium (DMEM) supplemented with 2% bovine serum and penicillin-streptomycin. Both cell lines were incubated in an atmosphere containing 5% CO2 at 37° C.
(§20) Cell proliferation assay (MTT assay)-HT-29 (7,000 cells) and SYF/c-Src527F (4,000 cells) cells were plated in 120 μl of culture medium per well of 96-well plate. Cells were incubated overnight before drug treatment. Test compounds were diluted in culture medium in a separate 96-well plate to yield 10× concentrations of test dose (50 nM, 500 nM, 5 μM, 50 μM, and 500 μM). 13.3 μl of the 10× compound was added to each well of cells to achieve the final test concentrations (5 nM, 50 nM, 500 nM, 5 μM and 50 μM). After 3 days incubation, 10 μl of MTT (Thiazolyl Blue Tetrazolium Bromide, 5 mg/ml in PBS) was added to each well and incubate for 3 hours at 37° C. After removal of culture medium, 100 μl of isopropanol containing 40 mM HCl was added to each well and incubate for 10 minutes on a shaker to dissolve the MTT formazan. Optical density (OD) at 570 nm was then measured using microplate reader and cell growth inhibition (percentage of growth) by each concentration of drug was calculated as: % growth=100×[(T−T0)/(C−T0)] (T: OD of the test well exposure to test drug; C: OD of the control well without drug treatment; T0: OD at time zero). Growth inhibition curves and GI50 were determined using GraphPad Prism 5 statistical software.

SYF/c-Src527F cell line = experiment: Cell proliferation assay (MTT assay), GI50; details: Mus musculus, 72 h, 3 days incubation
Experimental: as §18, §19, §20

JAK1 = target: T2, JAK1 (Homo sapiens, UniProt P23458); experiment: JAK phosphorylation/activation by flow cytometry, pSTAT6 staining in IL-4 stimulated U-937 cells; details: drug 30 min, then IL-4
T2 construct: U-937 cells, histiocytic lymphoma cell line; endogenous in cells; host or cells: U-937 (ATCC CRL-1593.2)
T2 sequence (P23458 whole entry): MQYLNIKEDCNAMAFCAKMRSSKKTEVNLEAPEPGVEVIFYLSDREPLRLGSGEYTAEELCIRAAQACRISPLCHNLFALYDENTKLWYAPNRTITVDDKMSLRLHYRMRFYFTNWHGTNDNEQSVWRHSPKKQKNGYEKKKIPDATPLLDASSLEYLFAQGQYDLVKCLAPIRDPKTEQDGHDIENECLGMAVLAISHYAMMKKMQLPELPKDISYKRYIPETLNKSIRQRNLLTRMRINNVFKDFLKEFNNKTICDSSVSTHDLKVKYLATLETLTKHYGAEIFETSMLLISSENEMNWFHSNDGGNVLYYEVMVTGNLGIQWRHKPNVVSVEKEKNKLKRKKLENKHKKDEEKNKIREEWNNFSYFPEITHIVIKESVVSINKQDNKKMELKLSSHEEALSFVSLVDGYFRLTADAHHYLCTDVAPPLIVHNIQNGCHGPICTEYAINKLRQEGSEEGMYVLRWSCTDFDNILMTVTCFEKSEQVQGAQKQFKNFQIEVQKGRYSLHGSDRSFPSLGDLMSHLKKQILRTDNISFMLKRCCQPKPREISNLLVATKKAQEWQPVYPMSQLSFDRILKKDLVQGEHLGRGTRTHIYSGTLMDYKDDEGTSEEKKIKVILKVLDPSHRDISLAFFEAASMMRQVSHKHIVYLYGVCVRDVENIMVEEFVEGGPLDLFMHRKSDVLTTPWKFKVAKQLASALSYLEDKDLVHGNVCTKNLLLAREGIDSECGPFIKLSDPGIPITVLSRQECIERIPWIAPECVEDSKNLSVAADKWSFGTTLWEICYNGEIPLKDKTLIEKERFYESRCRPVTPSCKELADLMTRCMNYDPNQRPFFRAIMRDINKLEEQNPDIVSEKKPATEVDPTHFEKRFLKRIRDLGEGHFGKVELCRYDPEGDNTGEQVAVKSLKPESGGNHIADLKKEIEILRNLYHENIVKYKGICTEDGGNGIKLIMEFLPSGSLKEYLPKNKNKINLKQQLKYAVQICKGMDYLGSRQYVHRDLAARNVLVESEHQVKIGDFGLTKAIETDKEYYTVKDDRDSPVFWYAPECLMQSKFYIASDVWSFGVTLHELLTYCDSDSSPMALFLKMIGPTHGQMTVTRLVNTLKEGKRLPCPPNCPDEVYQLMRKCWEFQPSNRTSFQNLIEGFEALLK
Experimental: as §1, §2, §3, §4, §5, §6, §7, §8, §9, §10, §11, §12, §13, §14, §15, §16, §17

Row | Structure (SMILES) | JAK3 pStat5-PE Signal (JAK3) | JAK3 pStat5-PE Signal/Background (JAK3) | GI50 [1] | JAK1 pStat6-Alexa647 Signal (JAK1) | JAK1 pStat6-Alexa647 Signal/Background (JAK1) | GI50 (SYF/c-Src527F cell line)
1 | O=C(Cc1ccccc1)NCc1ccc(-c2ccccc2)cc1 [Compound 125] | 4.58 | 1.56 | 0.46 µM | 29.48 | 7.05 | 0.75 µM
2 | O=C(NCc1ccccc1)Nc1ccc(-c2ccccc2)cn1 [Compound 129] | 4.15 | 1.42 | 5.4 µM | 23.06 | 5.51 | 24.7 µM
3 | O=C(NCc1ccccc1)Oc1ccc(-c2ccccc2)cc1 [Compound 130] | 5.21 | 1.78 | 27.1 µM | 31.77 | 7.60 | 7.6 µM
4 | O=S(=O)(Cc1ccc(Br)cc1)NCc1ccc(-c2ccccc2)cc1 [Compound 134] | 3.66 | 1.25 | 5.6 µM | 21.47 | 5.14 | 4.9 µM
5 | c1ccc(CCSCc2ccc(-c3ccccc3)cc2)cc1 [Compound 135] | 3.48 | 1.19 | 9.7 µM | 17.15 | 4.10 | 18.6 µM
6 | [O-][S+](CCc1ccccc1)Cc1ccc(-c2ccccc2)cc1 (centres unmarked) [Compound 137] | 3.71 | 1.27 | 1.8 µM | 22.03 | 5.27 | 0.97 µM
7 | O=S(=O)(Cc1ccc(-c2ccccc2)cc1)NCc1ccccc1 [Compound 138] | 4.10 | 1.40 | 13.9 µM | 28.65 | 6.85 | 1.4 µM
8 | O=S(=O)(CCc1ccccc1)Cc1ccc(-c2ccccc2)cc1 [Compound 139] | 4.41 | 1.51 | 2.9 µM | 25.08 | 6.00 | 2.2 µM
9 | O=C(CCc1ccccc1)Cc1ccc(-c2ccccc2)cn1 [Compound 150] | 3.36 | 1.27 | 5.7 µM | 14.48 | 3.81 | 20.8 µM
10 | O=C(Cc1ccccc1)NCc1ccc(OCc2ccccc2)cc1 [Compound 163] | 3.24 | 1.22 | 62.9 µM | 15.35 | 4.04 | 275 µM
11 | O=C(Cc1ccc(-c2ccccc2)cc1)NCc1cccc(F)c1 [Control A] | 4.12 | 1.41 | – | 23.79 | 5.69 | –
12 | O=C(Cc1ccc(-c2ccc(OCCN3CCOCC3)cc2)cn1)NCc1ccccc1 [Control B] | 3.42 | 1.17 | – | 19.03 | 4.55 | –
13 | COc1cc2ncnc(Nc3ccc(O)c(Br)c3)c2cc1OC [WHI-P154] | 1.63 | 0.56 | – | 14.54 | 3.48 | –

The next lines start with results.

Row | JAK3 pStat5-PE Signal (JAK3) | JAK3 pStat5-PE Signal/Background (JAK3) | GI50 [1] | JAK1 pStat6-Alexa647 Signal (JAK1) | JAK1 pStat6-Alexa647 Signal/Background (JAK1) | Structure (SMILES) | GI50 (SYF/c-Src527F cell line)
14 | 5.34 | 1.82 | 2.8 µM | 30.85 | 7.38 | O=C(NCCc1ccc(-c2ccccc2)cc1)c1ccccc1 [Compound 126] | 3.1 µM
15 | 3.38 | 1.15 | 3.3 µM | 18.81 | 4.50 | c1ccc(CNCCc2ccc(-c3ccccc3)cc2)cc1 [Compound 127] | 1.4 µM
16 | 3.02 | 1.14 | 2.1 µM | 13.76 | 3.62 | O=C(Cc1ccccc1)NCc1ccc(-c2ccccc2)cn1 [Compound 140] | 11.8 µM
17 | 3.19 | 1.09 | – | 33.80 | 8.09 | COc1cc2ncnc(Nc3ccc(O)cc3)c2cc1OC [WHI-P131] | –
18 | – | – | 0.27 µM | – | – | O=C(Cc1ccc(-c2ccccc2)cc1)NCc1cccc(F)c1 [drawing 586] | 0.46 µM
19 | – | – | 0.026 µM | – | – | O=C(Cc1ccc(-c2ccc(OCCN3CCOCC3)cc2)cn1)NCc1ccccc1 [drawing 587] | 0.023 µM
